Publication PMC6753678, “Fueling Open Innovation for Malaria Transmission-Blocking Drugs: Hundreds of Molecules Targeting Early Parasite Mosquito Stages” (Frontiers in Microbiology, 2019)

Tests used:
[1] = system: P. falciparum late stage (stages IV-V) gametocytes; test: P. falciparum late stage gametocyte ATP depletion assay (Pf GC-ATP); conditions: 1: YES; 0: NO; >10-fold selectivity over cytotoxicity
HepG2 cells = test: HepG2 cytotoxicity assay; conditions: HepG2 cytotoxicity unified across screens; >25 set to 25.00
Procedure, shortened: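 HepG2 cells, 2,500 per well in MEM with 10% FBS and 1% NEAA, exposed to compounds for 48 h at 37°C, 5% CO2. Viability read by fluorescence; percent inhibition relative to 50 μM doxorubicin and DMSO controls.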

[2] = system: P. falciparum late stage (stages IV-V) gametocytes; design: method as in Almela et al 2016; conditions: P. falciparum late stage gametocyte ATP assay, TCAMS screen; ref Almela et al 2016; read-out: Pf GCT ATP IC50; cited from earlier work

| SMILES | Is compound selective in assay? Pf GC-ATP active? [1] | Unified cytotox (HepG2 cells) [µM] | IC50 [2] [nM] |
| --- | --- | --- | --- |
| COc1ccc2nc3cc(Cl)ccc3c(NCCN3CCN(C)CC3)c2c1 [TCMDC-137476] | 1 (1: YES) | 19.33 | 1880 |
| CN1CCN(CCCCNc2c3ccccc3nc3ccccc23)CC1 [TCMDC-137479] | 0 (0: NO) | 3.39 | 1320 |
| Br.C=CCNC(CCCCC)c1ccc(OCCOc2ccc(C(CCCCC)NCC=C)cc2)cc1 (stereo not drawn) [TCMDC-137483] | 0 (0: NO) | 5.80 | 910 |
| CCCCN1CCN(CCCCNc2c3ccccc3nc3ccccc23)CC1.Cl [TCMDC-137569] | 1 (1: YES) | 12.68 | 1190 |
| COc1ccc2nc3cc(Cl)ccc3c(NCCCCN3CCNCC3)c2c1.Cl [TCMDC-137578] | 0 (0: NO) | 5.00 | 660 |
| Br.CCCCC(NCC)c1ccc(OCCOc2ccc(C(CCCC)NCC)cc2)cc1 (stereo not drawn) [TCMDC-137612] | 1 (1: YES) | 6.10 | 420 |
| CCCCCCNC(=N)c1ccc(OCCCCCOc2ccc(C(=N)NCCCCCC)cc2)cc1.Cl [TCMDC-137619] | 1 (1: YES) | 5.39 | 310 |
| CCCCCCC(N)c1ccc(OCCCOc2ccc(C(N)CCCCCC)cc2)cc1.Cl (stereo not drawn) [TCMDC-137621] | 1 (1: YES) | 1.90 | 53.3 |
| CCCCCOc1ccc(C(=NC)N(CCCCC)CCCCC)c2ccccc12.I [TCMDC-137703] | 0 (0: NO) | 6.30 | 890 |
| CCOc1ccc2ccccc2c1CNCCCCCCNCc1c(OCC)ccc2ccccc12.CS(=O)(=O)O [TCMDC-137791] | 0 (0: NO) | 1.75 | 700 |
| Br.c1cc(C2=NC3CCCCC3N2)ccc1OCCCCCOc1ccc(C2=NC3CCCCC3N2)cc1 (stereo not drawn) [TCMDC-137802] | 1 (1: YES) | 3.74 | 280 |
| COc1ccc2c(c1CNCCCCCCNCc1c(OC)ccc3c1CCCC3)CCCC2 [TCMDC-137817] | 0 (0: NO) | 3.83 | 420 |
| COc1cc2ccccc2c(OC)c1CNCCCCCCNCc1c(OC)cc2ccccc2c1OC.CS(=O)(=O)O [TCMDC-137843] | 1 (1: YES) | 4.25 | 320 |
| CN(CCCNCc1cccc2ccccc12)CCCNCc1cccc2ccccc12.Cl [TCMDC-137905] | 1 (1: YES) | 5.72 | 230 |
| COCCCNC(=S)NN=C(C)c1ccccn1 [TCMDC-137907] | 1 (1: YES) | 17.00 | 160 |
| Cl.c1ccc2c(CNCCCN3CCN(CCCNCc4c5ccccc5cc5ccccc45)CC3)c3ccccc3cc2c1 [TCMDC-137909] | 1 (1: YES) | 6.28 | 110 |
| Cl.c1ccc2c(NCCCCCCNc3ccnc4ccccc34)ccnc2c1 [TCMDC-137913] | 1 (1: YES) | 16.40 | 960 |
| Cl.c1ccc2c(c1)cc(CNCCCN1CCN(CCCNCc3cc4ccccc4c4ccccc34)CC1)c1ccccc12 [TCMDC-137914] | 1 (1: YES) | 13.70 | 1110 |
| Cl.c1ccc(CN2CCN(CCCCNc3c4ccccc4nc4ccccc34)CC2)cc1 [TCMDC-138009] | 1 (1: YES) | 9.92 | 790 |
| COc1ccc2nc3cc(Cl)ccc3c(NCCCCNc3c4ccc(Cl)cc4nc4ccc(OC)cc34)c2c1 [TCMDC-138218] | 1 (1: YES) | 14.47 | 200 |
| Cc1nc(-c2cccc(Nc3ccnc4cc(-c5nccs5)ccc34)c2)no1.Cl [TCMDC-138334] | 1 (1: YES) | 7.62 | 300 |
| Cc1cc(NCCc2ccccc2)nc(NC(=N)Nc2ccccc2Cl)n1 [TCMDC-138370] | 0 (0: NO) | 13.60 | 4870 |
